In the NIST ThermoML archive (doi:10.1016/j.jct.2013.09.017):

Legend:
[1] = 101 kPa, Liquid; for viscosity: Capillary tube (Ostwald / Ubbelohde) method; for mass density: Vibrating tube method
[2] = xn = mol fraction of the nth substance listed; conditions: 101 kPa, Liquid; for viscosity: Capillary tube (Ostwald / Ubbelohde) method; for mass density: Vibrating tube method

CCCCCCCCCC [decane]
[1]
Conditions	mass density [kg/m3]	viscosity [mPa·s]
283.15 K	737.54	1.082
293.15 K	730.01	0.925
298.15 K	726.22	0.858
303.15 K	722.44	0.797

CCCCCCC [heptane]
[1]
Conditions	mass density [kg/m3]	viscosity [mPa·s]
283.15 K	692.44	0.469
293.15 K	684.05	0.42
298.15 K	679.78	0.397
303.15 K	675.54	0.377

CCCCCCCCN(CCCCCCCC)CCCCCCCC [trioctylamine] + CCCCCCCCCC
[2]
Conditions	mass density, 283.15 K [kg/m3]	mass density, 293.15 K [kg/m3]	mass density, 303.15 K [kg/m3]	viscosity, 283.15 K [mPa·s]	viscosity, 293.15 K [mPa·s]	viscosity, 303.15 K [mPa·s]
x1 = 0.1113	755.32	748.01	740.66	1.64	1.371	1.152
x1 = 0.1979	766.34	759.17	751.96	2.266	1.837	1.514
x1 = 0.297	776.77	769.72	762.64	3.092	2.448	1.976
x1 = 0.3974	785.51	778.56	771.59	4.092	3.172	2.515
x1 = 0.5044	793.3	786.44	779.56	5.402	4.086	3.174
x1 = 0.5913	798.73	791.93	785.11	6.558	4.896	3.743
x1 = 0.6888	804.03	797.29	790.53	8.006	5.85	4.389
x1 = 0.7962	809.11	802.43	795.73	9.857	7.086	5.238
x1 = 0.8991	813.37	806.73	800.09	11.97	8.401	6.09
x1 = 1	817.08	810.48	803.88	14.25	9.957	7.114

CCCCCCCCC [nonane] + CCCCCCCCN(CCCCCCCC)CCCCCCCC
[2], x2 = 0
Conditions	mass density [kg/m3]	viscosity [mPa·s]
283.15 K	725.58	0.826
293.15 K	717.86	0.713
303.15 K	710.06	0.623

CCCCCCCCC [nonane]
[1]
Conditions	mass density [kg/m3]	viscosity [mPa·s]
283.15 K	725.58	0.826
293.15 K	717.86	0.713
298.15 K	713.95	0.667
303.15 K	710.06	0.623

CCCCCCCCN(CCCCCCCC)CCCCCCCC [trioctylamine]
[1]
Conditions	mass density [kg/m3]	viscosity [mPa·s]
283.15 K	817.08	14.25
293.15 K	810.48	9.957
298.15 K	807.26	8.392
303.15 K	803.88	7.114

CCCCCCCC [octane]
[1]
Conditions	mass density [kg/m3]	viscosity [mPa·s]
283.15 K	710.61	0.613
293.15 K	702.6	0.541
298.15 K	698.55	0.51
303.15 K	694.5	0.481

CCCCCCCCCC [decane] + CCCCCCCCN(CCCCCCCC)CCCCCCCC
[2], x2 = 0
Conditions	mass density [kg/m3]	viscosity [mPa·s]
283.15 K	737.54	1.082
293.15 K	730.01	0.925
303.15 K	722.44	0.797

CCCCCCCCN(CCCCCCCC)CCCCCCCC [trioctylamine] + CCCCCCCC
[2]
Conditions	mass density, 283.15 K [kg/m3]	mass density, 293.15 K [kg/m3]	mass density, 303.15 K [kg/m3]	viscosity, 283.15 K [mPa·s]	viscosity, 293.15 K [mPa·s]	viscosity, 303.15 K [mPa·s]
x1 = 0.1044	737.14	729.58	721.95	1.045	0.899	0.78
x1 = 0.2005	755.2	747.83	740.4	1.63	1.356	1.145
x1 = 0.2992	769.49	762.3	755.07	2.385	1.933	1.593
x1 = 0.4001	780.98	773.93	766.85	3.399	2.665	2.145
x1 = 0.4977	789.85	782.91	775.97	4.545	3.491	2.734
x1 = 0.6012	797.54	790.72	783.87	5.969	4.482	3.46
x1 = 0.7015	803.68	796.94	790.09	7.556	5.594	4.231
x1 = 0.7978	808.69	802	795.3	9.424	6.848	5.092
x1 = 0.897	813.09	806.45	799.81	11.61	8.242	6.01
x1 = 1	817.08	810.48	803.88	14.25	9.957	7.114

CCCCCCCCN(CCCCCCCC)CCCCCCCC [trioctylamine] + CCCCCCCCC
[2]
Conditions	mass density, 283.15 K [kg/m3]	mass density, 293.15 K [kg/m3]	mass density, 303.15 K [kg/m3]	viscosity, 283.15 K [mPa·s]	viscosity, 293.15 K [mPa·s]	viscosity, 303.15 K [mPa·s]
x1 = 0.1015	746.06	738.6	731.08	1.277	1.072	0.918
x1 = 0.2014	761.56	754.29	746.99	1.932	1.588	1.326
x1 = 0.3016	773.78	766.67	759.52	2.701	2.163	1.766
x1 = 0.3988	783.37	776.38	769.35	3.656	2.862	2.273
x1 = 0.4969	791.34	784.45	777.53	4.815	3.685	2.881
x1 = 0.5956	798.14	791.33	784.51	6.134	4.579	3.514
x1 = 0.6953	803.91	797.16	790.4	7.725	5.664	4.267
x1 = 0.7943	808.76	802.07	795.37	9.548	6.874	5.069
x1 = 0.9025	813.41	806.77	800.13	11.89	8.466	6.161
x1 = 1	817.08	810.48	803.88	14.25	9.957	7.114

CCCCCCC [heptane] + CCCCCCCCN(CCCCCCCC)CCCCCCCC
[2], x2 = 0
Conditions	mass density [kg/m3]	viscosity [mPa·s]
283.15 K	692.44	0.469
293.15 K	684.05	0.42
303.15 K	675.54	0.377

CCCCCCCC [octane] + CCCCCCCCN(CCCCCCCC)CCCCCCCC
[2], x2 = 0
Conditions	mass density [kg/m3]	viscosity [mPa·s]
283.15 K	710.61	0.613
293.15 K	702.6	0.541
303.15 K	694.5	0.481
